Measured values: the supplement of paper PMC11208160

Assay: recombinant barcode read abundance after kanamycin selection (control-corrected) (log10(CPM+1)); higher = more efficient recombination; sequences stand for … in AGTGCAGAGAAAATCGGCCAGTTTTCTCTGCCTGCAGTCCGCATGCCGT…AGATTTATGCAGCGGACTGCCTTTCTCCCAAAGTGATAAACCGGACAGTATCATGGACCGGTTTTCCCGGTAATCCGTATTTGCAAGGTTGGTTTCACT; site = the 11-nt target
How it was run: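 Recombination efficiency was calculated from barcode counts at recombinant junctions, normalized to counts per million, averaged and corrected by the control. Each value is given as log10(CPM+1). The constructs were Gibson-cloned oligos (promoter, target, barcode, J23119-driven first 104 bridge RNA bases) in a vector with the remaining 73 bp and a T7-inducible recombinase, co-electroporated into E. coli with a donor plasmid and plated in duplicate on chloramphenicol/ampicillin LB agar (control) or chloramphenicol/ampicillin/kanamycin with 0.1 mM IPTG.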
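Further: IS621 recombinase and bridge RNA in Escherichia coli cells.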

| Sequence | recombinant barcode read abundance (log10) |
| --- | --- |
| GGGCCTGCTTGGGTTCTAACCTGTTGCCA (site CTCGACCCTAT) | 0 |
| GGGCCTGCTTGGGTTCTAACCTGTTGCCA (site GGGCCTGCTTG) | 1.18 |
| GGGCTGTCTTGGGTTCTAACCTGTTGCTT (site GGGCTGTCTAA) | 0.705 |
| GGGCTGTCTTGGGTTCTAACCTGTTGCTT (site GGGGTGTCTCA) | 0.37 |
| GGGGAGCCTTGGGTTCTAACCTGTTGCTG (site GGGGAGCCTCA) | 2.9 |
| GGGGAGCCTTGGGTTCTAACCTGTTGCTG (site GGGGAGTCTAA) | 0.358 |
| GGGGATCCTTGGGTTCTAACCTGTTGCCT (site GAGGATCCTAG) | 0.679 |
| GGGGATCCTTGGGTTCTAACCTGTTGCCT (site GGGGATCCTAG) | 2.45 |
| GGGGCACCTTGGGTTCTAACCTGTTGCAT (site GGGGCACCTAA) | 1.56 |
| GGGGCACCTTGGGTTCTAACCTGTTGCAT (site GGGGCACCTAC) | 0.357 |
| GGGGCACCTTGGGTTCTAACCTGTTGCAT (site GGGGCACCTAG) | 0.598 |
| GGGGCACCTTGGGTTCTAACCTGTTGCAT (site GGGGCACCTAT) | 2.89 |
| GGGGCCTCTTGGGTTCTAACCTGTTGCTT (site GGGGCATCTAA) | 0.481 |
| GGGGCCTCTTGGGTTCTAACCTGTTGCTT (site GGGGCCTCTAA) | 2.59 |
| GGGGCCTCTTGGGTTCTAACCTGTTGCTT (site GGGGCGTCTAA) | 0.225 |
| GGGGCCTCTTGGGTTCTAACCTGTTGCTT (site GGGGCTTCTAA) | 0.398 |
| GGGGCGGCTTGGGTTCTAACCTGTTGCCT (site GGGGCGACTAG) | 0.489 |
| GGGGCGGCTTGGGTTCTAACCTGTTGCCT (site GGGGCGCCTAG) | 0.0428 |

| Sequence | recombinant barcode read abundance (log10) |
| --- | --- |
| GGGGCGGCTTGGGTTCTAACCTGTTGCCT (site GGGGCGGCTAG) | 1.8 |
| GGGGCGGCTTGGGTTCTAACCTGTTGCCT (site GGGGCGTCTAG) | 0.242 |
| GGGGCGTCTTGGGTTCTAACCTGTTGCCG (site GGGCAGTCTCG) | 0.201 |
| GGGGCGTCTTGGGTTCTAACCTGTTGCCG (site GGGGCGTCTCG) | 1.63 |
| GGGGCGTCTTGGGTTCTAACCTGTTGCCT (site GGGGCGACTAG) | 0.167 |
| GGGGCGTCTTGGGTTCTAACCTGTTGCCT (site GGGGCGCCTAG) | 0.426 |
| GGGGCGTCTTGGGTTCTAACCTGTTGCCT (site GGGGCGGCTAG) | 0.172 |
| GGGGCGTCTTGGGTTCTAACCTGTTGCCT (site GGGGCGTCTAG) | 1.55 |
| GGGGCGTCTTGGGTTCTAACCTGTTGCTG (site GGGGCGTCTCA) | 2.44 |
| GGGGCGTCTTGGGTTCTAACCTGTTGCTG (site TCCATAACTAG) | 0.175 |
| GGGGCTTCTTGGGTTCTAACCTGTTGCCT (site GAGGCTTCTAG) | 0.0126 |
| GGGGCTTCTTGGGTTCTAACCTGTTGCCT (site GCGGCTTCTAG) | 0.207 |
| GGGGCTTCTTGGGTTCTAACCTGTTGCCT (site GGGGCTTCTAG) | 0.919 |
| GGGGCTTCTTGGGTTCTAACCTGTTGCCT (site GTGGCTTCTAG) | 0.245 |
| GGGGTATCTTGGGTTCTAACCTGTTGCCT (site GCGGTATCTAG) | 0.0929 |
| GGGGTATCTTGGGTTCTAACCTGTTGCCT (site GGGGTATCTAG) | 1.21 |
| GGGTAAACTTGGGTTCTAACCTGTTGCCT (site GGGTAAACTAG) | 0.953 |
| GGGTAAACTTGGGTTCTAACCTGTTGCCT (site GGGTAATCTAG) | 0.702 |
